Results reported in PubChem BioAssay AID1259407 (Chemical Carcinogenesis Research Information System (CCRIS), 2018).
Activity calls are given as the source filed them. No rule for the calls is given here.

System: CCRIS mutagenicity, Ames/micronucleus/aberration tests
Assay: CCRIS mutagenicity studies
[1] = Test System: AMES SALMONELLA TYPHIMURIUM, Strain/Indicator: TA98, Metabolic Activation: NONE, Method: PREINCUBATION
[2] = Test System: AMES SALMONELLA TYPHIMURIUM, Strain/Indicator: TA100, Metabolic Activation: NONE, Method: PREINCUBATION
[3] = Test System: AMES SALMONELLA TYPHIMURIUM, Strain/Indicator: TA1535, Metabolic Activation: NONE, Method: PREINCUBATION
[4] = Test System: AMES SALMONELLA TYPHIMURIUM, Strain/Indicator: TA1537, Metabolic Activation: NONE, Method: PREINCUBATION
[5] = Test System: AMES SALMONELLA TYPHIMURIUM, Strain/Indicator: TA1538, Metabolic Activation: RAT, LIVER, S-9, AROCLOR 1254, Method: STANDARD PLATE
[6] = Test System: AMES SALMONELLA TYPHIMURIUM, Strain/Indicator: TA100, Metabolic Activation: NONE, Method: STANDARD PLATE

O=S(O)S(=O)O
mutagenic call (Test System: AMES SALMONELLA TYPHIMURIUM, Strain/Indicator: TA97, Metabolic Activation: NONE, Method: PREINCUBATION): inactive; negative | mutagenic call (Test System: AMES SALMONELLA TYPHIMURIUM, Strain/Indicator: TA97, Metabolic Activation: RAT, LIVER, S-9, AROCLOR 1254, Method: PREINCUBATION): inactive; negative | mutagenic call [1]: inactive; negative | mutagenic call (Test System: AMES SALMONELLA TYPHIMURIUM, Strain/Indicator: TA98, Metabolic Activation: RAT LIVER S-9, PHENOBARBITAL AND BETA-NAPHTHOFLAVONE, Method: PREINCUBATION): inactive; negative | mutagenic call (Test System: AMES SALMONELLA TYPHIMURIUM, Strain/Indicator: TA98, Metabolic Activation: RAT, LIVER, S-9, KC 500, Method: PREINCUBATION): inactive; negative | mutagenic call [2]: inactive; negative | mutagenic call (Test System: AMES SALMONELLA TYPHIMURIUM, Strain/Indicator: TA100, Metabolic Activation: RAT LIVER S-9, PHENOBARBITAL AND BETA-NAPHTHOFLAVONE, Method: PREINCUBATION): inactive; negative | mutagenic call (Test System: AMES SALMONELLA TYPHIMURIUM, Strain/Indicator: TA100, Metabolic Activation: RAT, LIVER, S-9, KC 500, Method: PREINCUBATION): inactive; negative | mutagenic call (Test System: AMES SALMONELLA TYPHIMURIUM, Strain/Indicator: TA102, Metabolic Activation: NONE, Method: PREINCUBATION): inactive; negative | mutagenic call (Test System: AMES SALMONELLA TYPHIMURIUM, Strain/Indicator: TA102, Metabolic Activation: RAT, LIVER, S-9, AROCLOR 1254, Method: PREINCUBATION): inactive; negative | mutagenic call [3]: inactive; negative | mutagenic call (Test System: AMES SALMONELLA TYPHIMURIUM, Strain/Indicator: TA1535, Metabolic Activation: RAT LIVER S-9, PHENOBARBITAL AND BETA-NAPHTHOFLAVONE, Method: PREINCUBATION): inactive; negative | mutagenic call (Test System: AMES SALMONELLA TYPHIMURIUM, Strain/Indicator: TA1535, Metabolic Activation: RAT, LIVER, S-9, KC 500, Method: PREINCUBATION): inactive; negative | mutagenic call [4]: inactive; negative | mutagenic call (Test System: AMES SALMONELLA TYPHIMURIUM, Strain/Indicator: TA1537, Metabolic Activation: RAT LIVER S-9, PHENOBARBITAL AND BETA-NAPHTHOFLAVONE, Method: PREINCUBATION): inactive; negative | mutagenic call (Test System: AMES SALMONELLA TYPHIMURIUM, Strain/Indicator: TA1537, Metabolic Activation: RAT, LIVER, S-9, KC 500, Method: PREINCUBATION): inactive; negative | mutagenic call (Test System: AMES SALMONELLA TYPHIMURIUM, Strain/Indicator: TA1538, Metabolic Activation: NONE, Method: PREINCUBATION): inactive; negative | mutagenic call (Test System: AMES SALMONELLA TYPHIMURIUM, Strain/Indicator: TA1538, Metabolic Activation: RAT LIVER S-9, PHENOBARBITAL AND BETA-NAPHTHOFLAVONE, Method: PREINCUBATION): inactive; negative | mutagenic call (Test System: AMES SALMONELLA TYPHIMURIUM, Strain/Indicator: TA1538, Metabolic Activation: RAT, LIVER, S-9, KC 500, Method: PREINCUBATION): inactive; negative | mutagenic call (Test System: E. COLI, Strain/Indicator: WP2 UVRA, Metabolic Activation: NONE, Method: PREINCUBATION): inactive; negative | mutagenic call (Test System: E. COLI, Strain/Indicator: WP2UVRA, Metabolic Activation: NONE, Method: PREINCUBATION): inactive; negative | mutagenic call (Test System: E. COLI, Strain/Indicator: WP2UVRA, Metabolic Activation: RAT LIVER S-9, PHENOBARBITAL AND BETA-NAPHTHOFLAVONE, Method: PREINCUBATION): inactive; negative | mutagenic call (Test System: E. COLI, Strain/Indicator: WP2 UVRA, Metabolic Activation: RAT, LIVER, S-9, KC 500, Method: PREINCUBATION): inactive; negative

CCN(CC)c1ccc2cc(-c3nc4ccccc4n3C)c(=O)oc2c1
mutagenic call (Test System: AMES SALMONELLA TYPHIMURIUM, Strain/Indicator: TA1538, Metabolic Activation: NONE, Method: STANDARD PLATE): inactive; negative | mutagenic call [5]: inactive; negative

COCC(=O)N(c1c(C)cccc1C)C(C)C(=O)OC (stereo unspecified)
mutagenic call (End Point: In vitro micronucleus, Test System: Human lymphocytes, Metabolic Activation: None): inactive; negative (positive only at 50 ug/ml dose) | mutagenic call (End Point: In vivo micronucleus, Test System: Bone marrow polychromatic erythrocytes, Species: Rat, Strain/Sex: Wistar/Male, Route: Oral): active; positive (at high dose)

CCCCCCC1CO1 (stereo unspecified)
mutagenic call [6]: inactive; negative | mutagenic call (Test System: AMES SALMONELLA TYPHIMURIUM, Strain/Indicator: TA1535, Metabolic Activation: NONE, Method: STANDARD PLATE): inactive; negative | mutagenic call (Test System: UDS RAT HEPATOCYTES, Strain/Indicator: THY INCORP, Metabolic Activation: NONE): inactive; negative

Cc1cccc2c([N+](=O)[O-])cccc12
mutagenic call [1]: active; positive

COc1cc(-c2ccc(N/N=C3\C(=O)c4c(O)cc(S(=O)(=O)O)cc4C=C3S(=O)(=O)O)c(OC)c2)ccc1N/N=C1\C(=O)c2c(O)cc(S(=O)(=O)O)cc2C=C1S(=O)(=O)O
mutagenic call (Test System: AMES SALMONELLA TYPHIMURIUM, Strain/Indicator: TA98, Metabolic Activation: HAMSTER, LIVER, S-9, AROCLOR 1254 (10%), Method: PREINCUBATION): inactive; negative | mutagenic call [1]: inactive; negative | mutagenic call (Test System: AMES SALMONELLA TYPHIMURIUM, Strain/Indicator: TA98, Metabolic Activation: RAT, LIVER, S-9, AROCLOR 1254 (10%), Method: PREINCUBATION): inactive; negative | mutagenic call (Test System: AMES SALMONELLA TYPHIMURIUM, Strain/Indicator: TA100, Metabolic Activation: HAMSTER, LIVER, S-9, AROCLOR 1254 (10%), Method: PREINCUBATION): inactive; negative | mutagenic call [2]: inactive; negative | mutagenic call (Test System: AMES SALMONELLA TYPHIMURIUM, Strain/Indicator: TA100, Metabolic Activation: RAT, LIVER, S-9, AROCLOR 1254 (10%), Method: PREINCUBATION): inactive; negative | mutagenic call (Test System: AMES SALMONELLA TYPHIMURIUM, Strain/Indicator: TA1535, Metabolic Activation: HAMSTER, LIVER, S-9, AROCLOR 1254 (10%), Method: PREINCUBATION): inactive; negative | mutagenic call [3]: inactive; negative | mutagenic call (Test System: AMES SALMONELLA TYPHIMURIUM, Strain/Indicator: TA1535, Metabolic Activation: RAT, LIVER, S-9, AROCLOR 1254 (10%), Method: PREINCUBATION): inactive; negative | mutagenic call (Test System: AMES SALMONELLA TYPHIMURIUM, Strain/Indicator: TA1537, Metabolic Activation: HAMSTER, LIVER, S-9, AROCLOR 1254 (10%), Method: PREINCUBATION): inactive; negative | mutagenic call [4]: inactive; negative | mutagenic call (Test System: AMES SALMONELLA TYPHIMURIUM, Strain/Indicator: TA1537, Metabolic Activation: RAT, LIVER, S-9, AROCLOR 1254 (10%), Method: PREINCUBATION): inactive; negative | mutagenic call [5]: inactive; negative

[Cl-].[Cl-].[Cl-].[Cr+3].c1cnc2c(c1)ccc1cccnc12.c1cnc2c(c1)ccc1cccnc12
mutagenic call [6]: active; positive

O=C(O)c1ccc(NC2OCC(O)C(O)C2O)cc1 (stereo unspecified)
mutagenic call (Test System: AMES SALMONELLA TYPHIMURIUM, Strain/Indicator: TA100, Metabolic Activation: NONE, Method: LIQUID INCUBATION): inactive; negative
